The source made the active and inactive calls. The calls are words filed in the database; no cut-off is given here.
Columns and labels:
[1] = biological target: Mast/stem cell growth factor receptor Kit (Homo sapiens, UniProt P10721); test: Inhibition of KIT (unknown origin)
[2] = biological target: T1, Receptor-type tyrosine-protein kinase FLT3 (Mus musculus) (UniProt Q00342); test: Inhibition of FLT3-mediated signalling pathway in mouse Ba/F3 FLT3-ITD cells assessed as inhibition of STAT5 phosphorylation at 50 nM by western blot analysis; assay type: cell-based
T1 sequence (whole entry): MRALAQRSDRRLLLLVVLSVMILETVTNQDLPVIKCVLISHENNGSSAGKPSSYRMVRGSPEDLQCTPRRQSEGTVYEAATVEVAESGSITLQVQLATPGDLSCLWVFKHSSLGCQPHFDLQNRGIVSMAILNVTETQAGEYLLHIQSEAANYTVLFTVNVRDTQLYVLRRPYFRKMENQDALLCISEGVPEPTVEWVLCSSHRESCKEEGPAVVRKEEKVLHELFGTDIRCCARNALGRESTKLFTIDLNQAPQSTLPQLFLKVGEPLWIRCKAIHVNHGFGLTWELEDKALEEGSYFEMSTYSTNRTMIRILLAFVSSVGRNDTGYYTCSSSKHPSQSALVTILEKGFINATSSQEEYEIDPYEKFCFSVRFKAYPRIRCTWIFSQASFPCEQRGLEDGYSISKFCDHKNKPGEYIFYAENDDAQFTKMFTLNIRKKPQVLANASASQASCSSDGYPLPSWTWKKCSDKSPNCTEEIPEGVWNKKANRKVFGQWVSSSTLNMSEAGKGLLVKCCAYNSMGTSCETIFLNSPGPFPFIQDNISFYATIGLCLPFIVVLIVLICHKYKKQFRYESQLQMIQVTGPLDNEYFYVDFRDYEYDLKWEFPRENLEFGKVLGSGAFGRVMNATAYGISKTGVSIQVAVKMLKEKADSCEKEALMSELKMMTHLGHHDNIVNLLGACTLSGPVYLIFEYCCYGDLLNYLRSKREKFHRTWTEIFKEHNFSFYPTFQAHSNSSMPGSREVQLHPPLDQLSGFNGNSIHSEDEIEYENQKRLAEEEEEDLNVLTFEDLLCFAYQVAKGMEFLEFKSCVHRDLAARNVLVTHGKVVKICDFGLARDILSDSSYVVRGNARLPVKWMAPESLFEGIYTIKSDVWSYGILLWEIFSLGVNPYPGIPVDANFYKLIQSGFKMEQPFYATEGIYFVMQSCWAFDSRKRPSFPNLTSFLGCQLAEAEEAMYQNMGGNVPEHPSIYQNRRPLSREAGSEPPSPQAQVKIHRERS

[3] = test system: MV4-11; test: Antiproliferative activity against human MV4-11 cells harboring FLT3-ITD mutant assessed as reduction in cell viability measured after 72 hrs ny MTS assay; assay type: functional, cell-based; conditions: MV4-11, 72 h
[4] = Antiproliferative activity against human ML-1 cells expressing wild type FLT3 assessed as reduction in cell viability measured after 72 hrs by MTS assay; assay type: functional, cell-based; conditions: ML1, 72 h
[5] = biological target: Receptor-type tyrosine-protein kinase FLT3 (Homo sapiens) (UniProt P36888); test: Inhibition of FLT3 phosphorylation in human MV4-11 cells assessed as reduction in phosphorylated FLT3 level measured after 12 hrs by western blot analysis; assay type: cell-based
[6] = biological target: Receptor-type tyrosine-protein kinase FLT3 (Homo sapiens) (UniProt P36888); test: Inhibition of FLT3-mediated signalling pathway in human MV4-11 cells assessed as inhibition of STAT5 phosphorylation at 50 nM by western blot analysis; assay type: cell-based; conditions: TDE = time-dependent effect
[7] = Antiproliferative activity against mouse Ba/F3 FLT3-ITD cells assessed as reduction in cell viability measured after 72 hrs by MTS assay; assay type: functional, cell-based
[8] = biological target: T1, Receptor-type tyrosine-protein kinase FLT3 (Mus musculus); test: Inhibition of FLT3-mediated signalling pathway in mouse Ba/F3 FLT3-ITD cells assessed as inhibition of MAPK phosphorylation at 50 nM by western blot analysis; assay type: cell-based; conditions: TDE = time-dependent effect
[9] = test system: Monocyte; test: Antiproliferative activity against human peripheral blood monocyte cells assessed as cell growth inhibition at 6 to 200 uM measured after 72 hrs by MTS assay; assay type: toxicity, cell-based; conditions: dose 6-200 µM
[10] = test system: HL-60; test: Antiproliferative activity against human HL-60 cells expressing wild type FLT3 assessed as reduction in cell viability measured after 72 hrs by MTS assay; assay type: functional, cell-based; conditions: HL-60, 72 h
[11] = biological target: Serine/threonine-protein kinase B-raf (Homo sapiens, UniProt P15056); test: Inhibition of BRAF (unknown origin)
[12] = test system: MOLM-13; test: Antiproliferative activity against human MOLM-13 cells harboring FLT3-ITD mutant assessed as reduction in cell viability measured after 72 hrs by MTS assay; assay type: functional, cell-based; conditions: MOLM-13, 72 h
[13] = biological target: Receptor-type tyrosine-protein kinase FLT3 (Homo sapiens, UniProt P36888, ITD); test: Inhibition of FLT3-ITD mutant (unknown origin)
[14] = biological target: Receptor-type tyrosine-protein kinase FLT3 (Homo sapiens) (UniProt P36888); test: Inhibition of FLT3-mediated signalling pathway in human MV4-11 cells assessed as inhibition of MAPK phosphorylation at 50 nM by western blot analysis; assay type: cell-based; conditions: TDE = time-dependent effect
[15] = Antiproliferative activity against mouse BaF3 cells expressing wild type FLT3 assessed as reduction in cell viability measured after 72 hrs by MTS assay; assay type: toxicity, cell-based
[16] = biological target: Receptor-type tyrosine-protein kinase FLT3 (Homo sapiens) (UniProt P36888); test: Inhibition of FLT3 phosphorylation in human MOLM-13 cells assessed as reduction in phosphorylated FLT3 level at 0.3 to 100 nM by sandwich ELISA assay; assay type: cell-based; conditions: dose 0.3-100 nM
[17] = biological target: Fibroblast growth factor receptor 1 (Homo sapiens, UniProt P11362); test: Inhibition of FGFR1 (unknown origin)
[18] = biological target: T1, Receptor-type tyrosine-protein kinase FLT3 (Mus musculus); test: Inhibition of FLT3 phosphorylation in mouse Ba/F3 FLT3-ITD cells assessed as reduction in phosphorylated FLT3 level measured after 12 hrs by western blot analysis; assay type: cell-based
[19] = biological target: T1, Receptor-type tyrosine-protein kinase FLT3 (Mus musculus); test: Inhibition of FLT3 phosphorylation in mouse Ba/F3 FLT3-ITD cells assessed as reduction in phosphorylated FLT3 level at 0.3 to 100 nM by sandwich ELISA assay; assay type: cell-based; conditions: dose 0.3-100 nM
[20] = biological target: Receptor-type tyrosine-protein kinase FLT3 (Homo sapiens) (UniProt P36888); test: Inhibition of FLT3 phosphorylation in human MV4-11 cells assessed as reduction in phosphorylated FLT3 level at 0.3 to 100 nM by sandwich ELISA assay; assay type: cell-based; conditions: dose 0.3-100 nM
[21] = biological target: T2, Receptor-type tyrosine-protein kinase FLT3 (Homo sapiens, UniProt P36888); test: Inhibition of FLT3 (unknown origin)
T2 sequence (P36888 whole entry): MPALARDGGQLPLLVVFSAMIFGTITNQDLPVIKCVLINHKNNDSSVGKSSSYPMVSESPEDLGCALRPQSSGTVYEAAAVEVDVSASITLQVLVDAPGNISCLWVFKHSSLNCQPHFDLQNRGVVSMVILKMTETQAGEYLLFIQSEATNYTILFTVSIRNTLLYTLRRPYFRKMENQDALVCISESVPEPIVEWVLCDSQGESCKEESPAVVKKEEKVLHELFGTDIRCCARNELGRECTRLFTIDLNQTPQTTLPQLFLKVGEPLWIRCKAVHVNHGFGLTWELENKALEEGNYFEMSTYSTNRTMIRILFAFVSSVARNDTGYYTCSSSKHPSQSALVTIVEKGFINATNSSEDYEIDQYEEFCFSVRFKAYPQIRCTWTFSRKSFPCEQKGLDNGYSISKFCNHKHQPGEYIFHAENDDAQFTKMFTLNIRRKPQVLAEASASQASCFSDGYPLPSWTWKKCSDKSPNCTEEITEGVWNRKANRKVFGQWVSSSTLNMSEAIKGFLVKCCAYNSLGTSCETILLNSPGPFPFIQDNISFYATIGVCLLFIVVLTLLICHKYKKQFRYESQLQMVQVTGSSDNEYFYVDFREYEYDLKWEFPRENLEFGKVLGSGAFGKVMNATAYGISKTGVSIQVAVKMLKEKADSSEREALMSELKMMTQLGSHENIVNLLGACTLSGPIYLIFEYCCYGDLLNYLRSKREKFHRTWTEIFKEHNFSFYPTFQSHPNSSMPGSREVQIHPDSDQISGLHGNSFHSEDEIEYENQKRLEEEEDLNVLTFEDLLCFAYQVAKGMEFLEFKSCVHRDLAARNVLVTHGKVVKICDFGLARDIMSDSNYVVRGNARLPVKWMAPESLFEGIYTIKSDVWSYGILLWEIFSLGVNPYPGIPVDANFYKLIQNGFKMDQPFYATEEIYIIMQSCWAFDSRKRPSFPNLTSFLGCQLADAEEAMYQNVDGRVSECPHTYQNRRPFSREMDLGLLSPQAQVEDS

Fibroblast growth factor receptor 1, sequence (P11362 whole entry): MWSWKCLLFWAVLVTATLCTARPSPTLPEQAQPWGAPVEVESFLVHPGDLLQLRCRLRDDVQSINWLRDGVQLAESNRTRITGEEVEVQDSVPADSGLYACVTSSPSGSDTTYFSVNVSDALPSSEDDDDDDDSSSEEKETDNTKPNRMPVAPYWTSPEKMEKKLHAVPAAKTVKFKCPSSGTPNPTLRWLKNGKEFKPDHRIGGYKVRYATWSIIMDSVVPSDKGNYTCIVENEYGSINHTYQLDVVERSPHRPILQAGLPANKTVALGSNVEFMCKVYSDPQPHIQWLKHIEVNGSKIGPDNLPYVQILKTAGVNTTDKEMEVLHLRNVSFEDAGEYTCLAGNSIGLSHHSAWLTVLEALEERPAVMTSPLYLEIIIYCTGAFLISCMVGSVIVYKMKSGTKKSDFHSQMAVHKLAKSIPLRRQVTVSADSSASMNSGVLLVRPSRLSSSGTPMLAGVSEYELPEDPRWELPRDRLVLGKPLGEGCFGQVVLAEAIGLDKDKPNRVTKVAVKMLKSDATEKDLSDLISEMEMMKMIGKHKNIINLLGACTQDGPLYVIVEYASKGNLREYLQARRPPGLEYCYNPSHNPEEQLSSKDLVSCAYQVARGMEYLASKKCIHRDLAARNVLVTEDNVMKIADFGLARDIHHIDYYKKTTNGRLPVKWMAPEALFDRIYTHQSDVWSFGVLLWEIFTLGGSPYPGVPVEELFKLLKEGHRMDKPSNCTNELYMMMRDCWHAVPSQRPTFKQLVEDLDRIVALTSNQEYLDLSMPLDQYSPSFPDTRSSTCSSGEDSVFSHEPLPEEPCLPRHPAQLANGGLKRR
Mast/stem cell growth factor receptor Kit, sequence (P10721 whole entry): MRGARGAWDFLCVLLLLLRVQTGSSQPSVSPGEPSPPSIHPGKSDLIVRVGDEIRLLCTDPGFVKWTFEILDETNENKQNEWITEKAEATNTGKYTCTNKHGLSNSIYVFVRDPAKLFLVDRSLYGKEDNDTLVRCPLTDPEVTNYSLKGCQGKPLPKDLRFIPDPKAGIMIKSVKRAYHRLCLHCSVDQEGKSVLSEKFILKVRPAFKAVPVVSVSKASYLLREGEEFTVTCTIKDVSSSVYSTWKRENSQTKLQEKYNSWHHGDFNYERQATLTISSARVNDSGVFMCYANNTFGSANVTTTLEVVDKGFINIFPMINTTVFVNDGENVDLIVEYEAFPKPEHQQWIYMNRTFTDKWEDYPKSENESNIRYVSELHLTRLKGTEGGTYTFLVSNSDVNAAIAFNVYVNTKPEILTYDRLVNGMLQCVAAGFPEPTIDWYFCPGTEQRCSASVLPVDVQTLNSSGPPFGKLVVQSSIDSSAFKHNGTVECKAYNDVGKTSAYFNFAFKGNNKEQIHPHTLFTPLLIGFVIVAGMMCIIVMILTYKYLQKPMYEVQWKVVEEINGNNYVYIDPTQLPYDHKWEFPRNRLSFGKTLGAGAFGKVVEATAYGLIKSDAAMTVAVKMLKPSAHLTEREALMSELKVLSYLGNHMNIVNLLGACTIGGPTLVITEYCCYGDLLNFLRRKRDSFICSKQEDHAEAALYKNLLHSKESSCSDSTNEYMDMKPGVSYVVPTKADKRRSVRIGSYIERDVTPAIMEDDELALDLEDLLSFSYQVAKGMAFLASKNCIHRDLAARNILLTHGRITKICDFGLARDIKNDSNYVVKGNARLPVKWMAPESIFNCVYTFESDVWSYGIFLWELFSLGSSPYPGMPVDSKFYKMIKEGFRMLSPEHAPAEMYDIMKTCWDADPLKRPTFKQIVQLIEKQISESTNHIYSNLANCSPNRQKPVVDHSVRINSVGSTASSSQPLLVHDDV
Serine/threonine-protein kinase B-raf, sequence (P15056 whole entry): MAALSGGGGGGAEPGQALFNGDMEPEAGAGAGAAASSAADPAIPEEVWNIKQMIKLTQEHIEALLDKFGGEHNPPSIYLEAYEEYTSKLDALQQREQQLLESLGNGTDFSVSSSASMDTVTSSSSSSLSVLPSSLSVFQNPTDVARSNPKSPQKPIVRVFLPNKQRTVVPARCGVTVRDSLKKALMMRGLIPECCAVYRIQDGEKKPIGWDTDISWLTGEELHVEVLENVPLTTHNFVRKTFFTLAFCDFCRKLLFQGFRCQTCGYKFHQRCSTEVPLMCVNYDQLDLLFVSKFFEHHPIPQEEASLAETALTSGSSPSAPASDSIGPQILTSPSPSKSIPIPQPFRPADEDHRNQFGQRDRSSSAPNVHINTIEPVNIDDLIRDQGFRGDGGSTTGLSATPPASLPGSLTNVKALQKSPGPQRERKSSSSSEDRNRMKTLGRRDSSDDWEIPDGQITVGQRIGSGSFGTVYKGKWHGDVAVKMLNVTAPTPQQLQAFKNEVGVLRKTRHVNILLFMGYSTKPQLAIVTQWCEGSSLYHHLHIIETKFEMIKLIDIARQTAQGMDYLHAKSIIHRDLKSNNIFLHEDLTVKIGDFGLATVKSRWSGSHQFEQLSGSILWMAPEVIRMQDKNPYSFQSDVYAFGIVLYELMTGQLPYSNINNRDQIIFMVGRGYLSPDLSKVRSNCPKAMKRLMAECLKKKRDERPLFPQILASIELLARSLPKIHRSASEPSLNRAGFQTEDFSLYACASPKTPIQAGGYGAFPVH

SMILES	IC50 [3]	IC50 [4]	IC50 [7]	IC50 [10]	IC50 [12]	IC50 at 72 h [15]	other results
COc1ccc(CNc2ccc3c(c2)ncn3-c2ccccc2)cc1OC	0.189 µM	> 50 µM	0.0948 µM	> 50 µM	0.113 µM	> 0.4 µM	IC50 [1]: 0.451 µM; inhibition [2]: Active; Activity [5]: 1 nM; inhibition [6]: Tde; inhibition [8]: Tde; Activity [9]: Not Active; IC50 [11]: > 1 µM; IC50 [13]: 0.09 µM; inhibition [14]: Tde; inhibition [16]: Active; IC50 [17]: > 1 µM; Activity [18]: 10 nM; inhibition [19]: Active; inhibition [20]: Active; IC50 [21]: 0.03 µM
OCCOc1ccc(CNc2ccc3c(c2)ncn3-c2ccccc2)cc1OCCO	0.167 µM	> 50 µM	0.0778 µM	> 50 µM	0.0698 µM	> 0.4 µM	–
COc1ccc(CNc2ccc3c(c2)ncn3-c2ccccc2)cc1OCCO	0.197 µM	> 50 µM	0.0754 µM	> 50 µM	0.0782 µM	> 0.4 µM	–
CNC(=O)c1cc(Oc2ccc(NC(=O)Nc3ccc(Cl)c(C(F)(F)F)c3)cc2)ccn1 [SORAFENIB]	–	0.5 µM	–	0.5 µM	–	–	–

— ChEMBL document CHEMBL5038665, “Identification of the Benzoimidazole Compound as a Selective FLT3 Inhibitor by Cell-Based High-Throughput Screening of a Diversity Library” (J Med Chem, 2022)
